Experiments:
Type in all cases: in vivo
[1] = system: Guinea Pig Chronic Obstructive Pulmonary Disease (COPD) Model; assay: Airway resistance (sRaw) in guinea pig COPD model (cigarette smoke exposure); conditions: for Specific airway resistance (sRaw) % increase from pre value: 1 week of cigarette smoke exposure, mean ± SEM of 8 animals
Experimental: (§1) An evaluation was carried out as follows according to a report of Kosuke MORIZUMI, Junichi FUCHIGAMI et al., 2002, The 75th Annual Meeting of the Japanese Pharmacological Society (2002) Abstract No. P-259, “Study of a chronic obstructive pulmonary disease-Effects of theophylline on respiratory function and lung function of guinea pigs in an exposure of cigarette smoke.”
(§2) Male Hartley strain guinea pigs (purchased from Japan SLC, Inc.) were taken in a cigarette exposure holder (RMH-TUBES, manufactured by Muenster Ltd.) to secure them to an exposure chamber (Flow-past type nose-only inhalation chamber, manufactured by Muenster Ltd.), and allowed to inhale cigarette smoke (Hi-Lite, manufactured by Japan Tobacco Inc.) for 60 minutes per day for 5 days in a week, totally 4 weeks using a smoking exposure equipment (Hamburg II, manufactured by Borgwaldt Technik), while the exposure was carried out for 4 days in the 4th week. • (2) Drug Administrations
(§3) Each 0.5% MC suspension of a test drug was orally administered daily in 5 ml/weight (kg) once a day for 25 days from the first day of the exposure. To a sham-exposure group and a control group was orally administered a 0.5% MC suspension in a similar manner. Any oral administrations were carried out 0.5 to 1 hours before exposures on a cigarette-smoke-exposure day or after measurements when measuring respiratory functions. A drug was not administered on the day for measurement of respiratory functions after finishing the 4th week of the exposure. • (3) Measurements of Airway Resistance
Specific airway resistances (sRaw) in guinea pigs were measured during awakening by double-flow plethysmography using general respiratory function analysis system (PULMOS-I, manufactured by M•I•P•S Corp.). Measurements were carried out before the exposure and on the day after finishing the 1st, 2nd, 3rd and 4th weeks of the exposure. Each 100 breathings of respiratory functions were individually measured, and the average values were obtained as measured values. A rate of change of airway resistances was calculated by the following equation. Rate of change of each measured week (%)=100×(a measured value on each measured date−a measured value before starting exposures of cigarette smoke)/a measured value before starting exposures of cigarette smoke

[2] = system: Guinea Pig Chronic Obstructive Pulmonary Disease (COPD) Model; assay: Inflammatory cells in bronchoalveolar fluid in guinea pig COPD model; conditions: for Cell number in BALF, Macrophage / Cell number in BALF, Neutrophil / Cell number in BALF, Total: mean ± SEM of 8 animals
Experimental: as §1, §2, §3
After measuring lung functions, animals were exsanguinated to death and opened the thorax, ligated the left bronchial bifurcation, and then injected saline (2.5 mL) into the right lung and aspirated the same via fixed cannula on measuring lung functions repeatedly in twice (totally 5 mL), and the recovery solution was obtained as a bronchoalveolar lavage fluid (BALF). BALF was centrifuged (230×g, 4° C., for 10 minutes) to give cell pellets. The pellets were suspended in saline (0.5 mL), and to a part of the suspension was added Turk solution (manufactured by Wako Pure Chemical Industries, Ltd.) so as to dilute 10 to 20 folds. Leukocyte numbers per 0.1 μL were measured by a blood cell counting chamber and leukocyte numbers per 1 μL were calculated. Cell suspensions were prepared again, smears were prepared using about 2000 to 3000 total cell numbers, May-Grunwald-Giemsa stain was carried out, leukocyte numbers were counted under the microscope, a ratio of each leukocyte number to total leukocyte number was obtained, and each cell number per 1 μL was calculated based on the ratio. Results are shown in each cell number per 1 μL.

[3] = system: Guinea Pig Chronic Obstructive Pulmonary Disease (COPD) Model; assay: Lung functions (FRC, RV) in guinea pig COPD model; conditions: for Functional residual capacity (FRC) / Residual volume (RV): after 4th week of exposure, mean ± SEM of 8 animals
Experimental: as §1, §2, §3
After measuring airway resistances in the 4th week, animals were cut open their tracheas under urethane-anesthetizing ([…], i.p.), cannulated on the side of lung, fixed by ligation, and measured residual volumes (RV) and functional residual capacities (FRC) by lung functions measuring system (Biosystem for maneuver, manufactured by Buxco Electronics).

[4] = system: Guinea Pig Chronic Obstructive Pulmonary Disease (COPD) Model; assay: Histological investigations of lung in guinea pig COPD model; conditions: for Number of animals with grade + (mild): A. Hyperplasia, epithelial cell, bronchus / Number of animals with grade + (mild): B. Cellular exudation, neutrophil/eosinophil, lumen, bronchiole / Number of animals with grade + (mild): C. Thickening, alveolar wall / Number of animals with grade + (mild): D. Accumulation, foamy/macrophage-like cell, alveolus / Number of animals with grade + (mild): E. Cellular infiltration, neutrophil, alveolus / Number of animals with grade ++ (moderate): A. Hyperplasia, epithelial cell, bronchus / Number of animals with grade ++ (moderate): B. Cellular exudation, neutrophil/eosinophil, lumen, bronchiole / Number of animals with grade ++ (moderate): C. Thickening, alveolar wall / Number of animals with grade ++ (moderate): D. Accumulation, foamy/macrophage-like cell, alveolus / Number of animals with grade ++ (moderate): E. Cellular infiltration, neutrophil, alveolus / Number of animals with grade +++ (severe): A. Hyperplasia, epithelial cell, bronchus / Number of animals with grade +++ (severe): B. Cellular exudation, neutrophil/eosinophil, lumen, bronchiole / Number of animals with grade +++ (severe): C. Thickening, alveolar wall / Number of animals with grade +++ (severe): D. Accumulation, foamy/macrophage-like cell, alveolus / Number of animals with grade +++ (severe): E. Cellular infiltration, neutrophil, alveolus / Number of animals with grade ± (minimal): A. Hyperplasia, epithelial cell, bronchus / Number of animals with grade ± (minimal): B. Cellular exudation, neutrophil/eosinophil, lumen, bronchiole / Number of animals with grade ± (minimal): C. Thickening, alveolar wall / Number of animals with grade ± (minimal): D. Accumulation, foamy/macrophage-like cell, alveolus / Number of animals with grade ± (minimal): E. Cellular infiltration, neutrophil, alveolus / Number of animals with grade − (none): A. Hyperplasia, epithelial cell, bronchus / Number of animals with grade − (none): B. Cellular exudation, neutrophil/eosinophil, lumen, bronchiole / Number of animals with grade − (none): C. Thickening, alveolar wall / Number of animals with grade − (none): D. Accumulation, foamy/macrophage-like cell, alveolus / Number of animals with grade − (none): E. Cellular infiltration, neutrophil, alveolus: 8 animals
Experimental: as §1, §2, §3
After collection of BALF, trachea and lung were isolated. The ligation site of the left lung was opened, injected neutral formalin buffer into trachea, bronchi and lung at the pressure of 20 cm H2O via cannula fixed on the side of the lung, and the lung tissue was extended to be fixed. According to a conventional method, tissue section samples were produced using posterior lobe of the left lung and hematoxylin-eosin (HE) stain was carried out. Any other lung tissues were stored in neutral formalin buffers. Drug efficacies of the produced tissue samples were evaluated by scoring tissue changes under the microscope. The criteria of scores were shown as follows: −: none, ±: minimal, +: mild, ++: moderate, +++: severe. Each quantification was calculated as 0, 1, 2, 3, 4.

[5] = groups of 10 mg/kg and 30 mg/kg, result in words

## CNC(=O)NCCn1c(-c2ccc(N3CCOCC3)cc2)csc1=Nc1cccc(F)c1 [SMP-028, N-{2-[2-[(3-fluorophenyl)imino]-4-(4-morpholinophenyl)-thiazol-3(2H)-yl]ethyl}-N′-methylurea]
[1]; 10 mg/kg/day oral
  Specific airway resistance (sRaw) % increase from pre value: 25.54 ± 10.91%
[1]; 30 mg/kg/day oral
  Specific airway resistance (sRaw) % increase from pre value: 15.02 ± 4.07%
[1]; [5]
  increases of airway resistance by cigarette smoking stimulation: tended to be suppressed
[2]; 10 mg/kg/day oral
  Cell number in BALF, Macrophage: 2506 ± 313 ^NS cells/μL
  Cell number in BALF, Neutrophil: 1114 ± 193 ^NS cells/μL
  Cell number in BALF, Total: 4044 ± 419 ^NS cells/μL
[2]; 30 mg/kg/day oral
  Cell number in BALF, Macrophage: 2497 ± 483 ^NS cells/μL
  Cell number in BALF, Neutrophil: 772 ± 277 ^NS cells/μL
  Cell number in BALF, Total: 3897 ± 783 ^NS cells/μL
[2]; [5]
  infiltrations of the inflammatory cells in the airway: tended to be suppressed
[3]; 10 mg/kg/day oral
  Functional residual capacity (FRC): 7.213 ± 0.374 ^NS mL
  Residual volume (RV): 3.236 ± 0.537 ^NS mL
[3]; 30 mg/kg/day oral
  Functional residual capacity (FRC): 7.066 ± 0.353 ^NS mL
  Residual volume (RV): 2.649 ± 0.649 ^NS mL
[3]; [5]
  increases of functional residual capacity (FRC) and residual volume (RV): tended to be suppressed
[4]; 10 mg/kg/day for 25 days
  Number of animals with grade + (mild): A. Hyperplasia, epithelial cell, bronchus: 0
  Number of animals with grade + (mild): B. Cellular exudation, neutrophil/eosinophil, lumen, bronchiole: 0
  Number of animals with grade + (mild): C. Thickening, alveolar wall: 2
  Number of animals with grade + (mild): D. Accumulation, foamy/macrophage-like cell, alveolus: 2
  Number of animals with grade + (mild): E. Cellular infiltration, neutrophil, alveolus: 0
  Number of animals with grade ++ (moderate): A. Hyperplasia, epithelial cell, bronchus: 0
  Number of animals with grade ++ (moderate): B. Cellular exudation, neutrophil/eosinophil, lumen, bronchiole: 0
  Number of animals with grade ++ (moderate): C. Thickening, alveolar wall: 0
  Number of animals with grade ++ (moderate): D. Accumulation, foamy/macrophage-like cell, alveolus: 0
  Number of animals with grade ++ (moderate): E. Cellular infiltration, neutrophil, alveolus: 0
  Number of animals with grade +++ (severe): A. Hyperplasia, epithelial cell, bronchus: 0
  Number of animals with grade +++ (severe): B. Cellular exudation, neutrophil/eosinophil, lumen, bronchiole: 0
  Number of animals with grade +++ (severe): C. Thickening, alveolar wall: 0
  Number of animals with grade +++ (severe): D. Accumulation, foamy/macrophage-like cell, alveolus: 0
  Number of animals with grade +++ (severe): E. Cellular infiltration, neutrophil, alveolus: 0
  Number of animals with grade ± (minimal): A. Hyperplasia, epithelial cell, bronchus: 1
  Number of animals with grade ± (minimal): B. Cellular exudation, neutrophil/eosinophil, lumen, bronchiole: 1
  Number of animals with grade ± (minimal): C. Thickening, alveolar wall: 2
  Number of animals with grade ± (minimal): D. Accumulation, foamy/macrophage-like cell, alveolus: 3
  Number of animals with grade ± (minimal): E. Cellular infiltration, neutrophil, alveolus: 0
  Number of animals with grade − (none): A. Hyperplasia, epithelial cell, bronchus: 7
  Number of animals with grade − (none): B. Cellular exudation, neutrophil/eosinophil, lumen, bronchiole: 7
  Number of animals with grade − (none): C. Thickening, alveolar wall: 4
  Number of animals with grade − (none): D. Accumulation, foamy/macrophage-like cell, alveolus: 3
  Number of animals with grade − (none): E. Cellular infiltration, neutrophil, alveolus: 8
[4]; 30 mg/kg/day for 25 days
  Number of animals with grade + (mild): A. Hyperplasia, epithelial cell, bronchus: 0
  Number of animals with grade + (mild): B. Cellular exudation, neutrophil/eosinophil, lumen, bronchiole: 0
  Number of animals with grade + (mild): C. Thickening, alveolar wall: 1
  Number of animals with grade + (mild): D. Accumulation, foamy/macrophage-like cell, alveolus: 2
  Number of animals with grade + (mild): E. Cellular infiltration, neutrophil, alveolus: 0
  Number of animals with grade ++ (moderate): A. Hyperplasia, epithelial cell, bronchus: 0
  Number of animals with grade ++ (moderate): B. Cellular exudation, neutrophil/eosinophil, lumen, bronchiole: 0
  Number of animals with grade ++ (moderate): C. Thickening, alveolar wall: 0
  Number of animals with grade ++ (moderate): D. Accumulation, foamy/macrophage-like cell, alveolus: 0
  Number of animals with grade ++ (moderate): E. Cellular infiltration, neutrophil, alveolus: 0
  Number of animals with grade +++ (severe): A. Hyperplasia, epithelial cell, bronchus: 0
  Number of animals with grade +++ (severe): B. Cellular exudation, neutrophil/eosinophil, lumen, bronchiole: 0
  Number of animals with grade +++ (severe): C. Thickening, alveolar wall: 0
  Number of animals with grade +++ (severe): D. Accumulation, foamy/macrophage-like cell, alveolus: 0
  Number of animals with grade +++ (severe): E. Cellular infiltration, neutrophil, alveolus: 0
  Number of animals with grade ± (minimal): A. Hyperplasia, epithelial cell, bronchus: 0
  Number of animals with grade ± (minimal): B. Cellular exudation, neutrophil/eosinophil, lumen, bronchiole: 0
  Number of animals with grade ± (minimal): C. Thickening, alveolar wall: 2
  Number of animals with grade ± (minimal): D. Accumulation, foamy/macrophage-like cell, alveolus: 3
  Number of animals with grade ± (minimal): E. Cellular infiltration, neutrophil, alveolus: 0
  Number of animals with grade − (none): A. Hyperplasia, epithelial cell, bronchus: 8
  Number of animals with grade − (none): B. Cellular exudation, neutrophil/eosinophil, lumen, bronchiole: 8
  Number of animals with grade − (none): C. Thickening, alveolar wall: 5
  Number of animals with grade − (none): D. Accumulation, foamy/macrophage-like cell, alveolus: 3
  Number of animals with grade − (none): E. Cellular infiltration, neutrophil, alveolus: 8
[4]; [5]
  accumulation of foamy cells/macrophage-like cells within the alveoli and thickening of the alveolar wall: tended to be suppressed
[4]; scores 0-4 for grades − to +++, result in words
  scored pathological findings (FIG. 2) relative to control group: tended to be dose-dependently suppressed
